According to US11160767B2, “4,4′-trans-dihydroxystilbene for use in treating cancer” (The George Washington University, a Congressionally …, priority 2017, dated 2021):

Legend:
[1] = system: U2OS; assay: In vitro cytotoxicity (SRB assay), U2OS; type: cell-based; conditions: Homo sapiens, 72 hours
Protocol: (§1) Cell lines and cell culture. HCT116, U205, PANC-1, MDA-231 cell lines were purchased from the American Type Culture Collection (Rockville, Md., US). Cells were cultured in the DMEM medium (Lonza, Basel, Switzerland) containing 10% fetal bovine serum (Gibco, Grand Island, N.Y., US), 100 Units/ml penicillin, 100 Units/mL streptomycin, […] L-glutamine (Gibco, Grand Island, N.Y., US) at 37° C. in a humidified atmosphere with 5% CO2.
(§2) In vitro cytotoxicity assays. […] SRB assay (Vichai and Kirtikara, 2006) was performed and the absorbance at 510 nm was read with a plate reader. The proliferation rate was calculated according to the Manufacturer's instruction. The IC50 value for each compound was determined from dose-effect relationship using the CompuSyn software (version 1.0.1; CompuSyn, Inc, Paramus, N.J.) (Chou, 2006). Cell proliferating doubling time was monitored over a period of 72 hours.

[2] = system: MDA-231/GFP; assay: In vitro cytotoxicity (SRB assay), MDA-231/GFP; type: cell-based; conditions: Homo sapiens, MDA-MB-231, 72 hours
Protocol: as §1, §2

[3] = system: PANC-1; assay: In vitro cytotoxicity (SRB assay), PANC-1; type: cell-based; conditions: Homo sapiens, 72 hours
Protocol: as §1, §2

[4] = system: HCT116; assay: In vitro cytotoxicity (SRB assay), HCT116; type: cell-based; conditions: Homo sapiens, HCT-116, 72 hours
Protocol: as §1, §2

[5] = system: HCT116 cells, U2OS cells, MDA-231/GFP cells, and PANC-1 cells; assay: Cytotoxicity across the four cancer cell lines (SAR summary); type: cell-based; conditions: range over four cell lines
Protocol: In vitro cytotoxicity assays. Cells growing in the Log phase were treated with various compounds at different concentrations (generally 0.137 to 100 μM) for 72 hours at 37° C. SRB assay (Vichai and Kirtikara, 2006) was performed and the absorbance at 510 nm was read with a plate reader. The proliferation rate was calculated according to the Manufacturer's instruction. The IC50 value for each compound was determined from dose-effect relationship using the CompuSyn software (version 1.0.1; CompuSyn, Inc, Paramus, N.J.) (Chou, 2006). Cell proliferating doubling time was monitored over a period of 72 hours.
Based on identification of resveratrol as a lead compound in the drug screening assays, the anti-cancer activity of synthetic resveratrol analogs (FIG. 2) was next investigated and compared to resveratrol using HCT116 cells, U2OS cells, MDA-231/GFP cells, and PANC-1 cells.
The structure activity relationship (SAR) of the derivatives of resveratrol were considered.

[6] = system: HCT116 cells; assay: DNA fiber assay; type: cell-based, human; conditions: added 2 hours prior to labeling
Protocol: Thus, the effect of DHS on DNA replication and cell cycle progression was investigated. Replication fork speeds were examined by DNA fiber assay (FIG. 7A). Briefly, DHS, hydroxyurea (Hu), or Aphidicolin (Aph) was added to HCT116 cells 2 hours prior to labeling of DNA with iododeoxyuridine (IdU) and/or chlorodeoxyuridine (CldU).

[7] = system: HCT116 xenograft tumor; assay: HCT116 xenograft tumor model; type: in vivo, nude mice; conditions: Day 38; DHS 50 mg/kg i.p. 14 consecutive days; cisplatin 8 mg/kg i.p.
Protocol: Xenograft mouse models. […] In xenograft studies, HCT116 (3×10^6 cells) and IGROV3/CP2 (5×10^6 cells) suspended in 100 μl of phosphate buffered saline (PBS, pH 7.4) were injected subcutaneously into the lower flank of the mice. Testing compounds were dissolved in DMSO/Tween 80/saline (10:10:80; v/v/v) buffer and were used to treat animals through intraperitoneal (i.p.) injection. […] The body weight of animals was measured throughout the study. Tumor diameters were measured with digital calipers, and the tumor volume in mm^3 was calculated by the formula: Volume=(width)^2×length/2.
HCT116 cells (5×10^6) were injected subcutaneously in nude mice and grown to approximately 100 mm^3 in volume. […] To study the preclinical toxicity of DHS, samples of hearts, livers, spleens, lung, and kidneys were collected on Day 38 and sections were stained for histological examination.

[8] = target: T1, RRM1 (Homo sapiens, UniProt P23921); assay: Thermal shift assay in HCT116 cells, RRM1; type: cell-based
T1 construct: endogenous in cells; host or cells: HCT116
Protocol: (§3) To investigate binding of DHS to RRM1 and RRM2, a thermal shift assay was performed in HCT116 cells treated with DMSO (vehicle), resveratrol, DHS, gemcitabine, or hydroxyurea (Hu). Gemcitabine is known to bind RRM1 (Plunkett et al., 1995 and Chen et al., 2011), and Hu has been reported to bind RRM2 (Thelander et al., 1985). […] DHS stabilized RRM2 protein in a dose responsive manner (5 to 20 μM DHS; FIG. 11A). To rule out nonspecific effects of DHS on RRM2, an in vitro thermal shift assay was conducted. Purified RRM1 and RRM2 were mixed and then incubated with DHS or Hu for 4 hours before performing the assay.

[9] = target: T2, RRM2 (Homo sapiens, UniProt P31350); assay: Thermal shift assay in HCT116 cells, RRM2; type: cell-based
T2 construct: endogenous in cells; host or cells: HCT116
T2 sequence (P31350 1-389): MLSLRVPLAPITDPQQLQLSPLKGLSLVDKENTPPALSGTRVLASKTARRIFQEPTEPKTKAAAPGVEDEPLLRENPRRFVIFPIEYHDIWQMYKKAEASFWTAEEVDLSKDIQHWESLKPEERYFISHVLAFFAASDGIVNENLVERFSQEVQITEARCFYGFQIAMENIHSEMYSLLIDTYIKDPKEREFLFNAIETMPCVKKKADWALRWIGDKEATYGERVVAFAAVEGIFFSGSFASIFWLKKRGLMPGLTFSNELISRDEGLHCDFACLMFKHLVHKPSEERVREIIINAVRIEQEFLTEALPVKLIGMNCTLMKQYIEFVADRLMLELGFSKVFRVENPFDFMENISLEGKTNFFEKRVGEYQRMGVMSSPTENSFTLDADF
Protocol: as §3

[10] = system: HCT116 cells; assay: dNTP amount in treated cells; type: cell-based, human
Excerpt: The effect of DHS on dNTP synthesis was investigated by measuring the amount of dNTPs in DHS-treated HCT116 cells.

[11] = system: And-1; assay: High-throughput screening, HEK-293T-And-1-Luc cells; type: cell-based; conditions: 48 hours
Protocol: High-throughput drug screening was performed using a HEK-293T-And-1-Luc cell line expressing Luciferase fused to And-1 (FIG. 1A). The level of cellular Luciferase activity was reflective of the level of And-1 protein. […] In the drug screening assays, cells were treated with testing drugs for 48 hours.

[12] = system: HCT116 cells; assay: Cell-cycle assay; type: cell-based, human; conditions: 10 μM
Protocol: A cell-cycle assay was conducted to study whether DHS would affect cell-cycle progression.

T1 sequence (P23921 whole entry): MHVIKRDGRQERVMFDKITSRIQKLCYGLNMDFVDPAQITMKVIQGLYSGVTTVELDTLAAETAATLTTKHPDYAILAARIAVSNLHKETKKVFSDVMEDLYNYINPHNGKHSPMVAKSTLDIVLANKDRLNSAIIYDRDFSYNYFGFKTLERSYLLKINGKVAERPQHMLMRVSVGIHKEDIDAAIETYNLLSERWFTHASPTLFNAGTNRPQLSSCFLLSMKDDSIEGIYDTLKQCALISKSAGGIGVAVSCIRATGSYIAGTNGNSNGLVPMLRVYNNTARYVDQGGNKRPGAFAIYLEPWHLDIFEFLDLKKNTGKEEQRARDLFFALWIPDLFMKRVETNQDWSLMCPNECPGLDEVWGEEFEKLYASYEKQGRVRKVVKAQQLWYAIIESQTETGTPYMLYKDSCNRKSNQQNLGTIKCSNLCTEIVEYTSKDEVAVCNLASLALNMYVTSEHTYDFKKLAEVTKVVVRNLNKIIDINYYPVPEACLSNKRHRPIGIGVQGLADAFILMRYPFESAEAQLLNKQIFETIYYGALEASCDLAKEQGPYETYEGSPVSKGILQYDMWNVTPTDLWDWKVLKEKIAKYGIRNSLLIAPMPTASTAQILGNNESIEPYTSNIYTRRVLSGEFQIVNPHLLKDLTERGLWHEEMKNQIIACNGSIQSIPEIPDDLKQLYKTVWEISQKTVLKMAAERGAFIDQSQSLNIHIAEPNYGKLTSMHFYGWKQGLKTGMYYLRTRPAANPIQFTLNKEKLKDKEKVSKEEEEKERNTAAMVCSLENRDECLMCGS

| Structure (SMILES) | IC50 [1] [µM] | IC50 [2] [µM] | IC50 [3] [µM] | IC50 [4] [µM] | IC50 [5] [µM] | DNA replication stalling [6] | Reduction in tumor volume as compared with the vehicle control group [7] [%] | RRM1 levels in thermal shift assay (binding) [8] | RRM2 levels in thermal shift assay (binding) [9] | dNTP synthesis [10] | And-1 protein level (luciferase activity) [11] | Effect on cell-cycle progression [12] |
| --- | --- | --- | --- | --- | --- | --- | --- | --- | --- | --- | --- | --- |
| Oc1ccc(/C=C/C=C/c2ccc(O)cc2)cc1 [#1, 4,4′-((1E,3E)-buta-1,3-diene-1,4-diyl)diphenol] | 1.1 ± 1.05 | 70.7 ± 16.7 | 308 ± 86.3 | 6.48 ± 3.98 | – | – | – | – | – | – | – | – |
| Oc1ccc(/C=C/C=C/C=C/c2ccc(O)cc2)cc1 [#2, 4,4′-((1E,3E,5E)-hexa-1,3,5-triene-1,6-dyl)diphenol] | 0.37 ± 0.28 | 57.9 ± 15.4 | 123 ± 93.4 | 11.7 ± 6.46 | – | – | – | – | – | – | – | – |
| Oc1ccc(/C=C/c2ccccc2)cc1 [#3, (E)-4-styrylphenol] | 23.6 ± 3.83 | 45.1 ± 13.9 | 109 ± 63.7 | 32.2 ± 5.88 | 23.6 to 109 | – | – | – | – | – | – | – |
| Oc1ccc(/C=C/c2ccccc2)cc1O [#4, (E)-4-styrylbenzene-1,2-diol] | 33.6 ± 28 | 13.7 ± 2.98 | 57.1 ± 44.7 | 50.2 ± 9.72 | 13.7 to 57.1 | – | – | – | – | – | – | – |
| Oc1ccc(/C=C/C=C/c2ccccc2)cc1O [#5, 4-((1E,3E)-4-phenylbuta-1,3-dien-1-yl)benzene-1,2-diol] | 4.66 ± 2.67 | 5.47 ± 4.02 | 18.4 ± 8.87 | 9.5 ± 3.64 | – | – | – | – | – | – | – | – |
| C[C@@]1(CO)[C@H](O)CC[C@@]2(C)[C@H]1CC[C@H]1C[C@@H]3C[C@@]12CC[C@]3(O)CO [Aph, Aphidicolin, reference compound] | – | – | – | – | – | caused DNA replication stalling | – | – | – | – | – | – |
| N.N.[Cl][Pt][Cl] [Cisplatin, reference compound] | – | – | – | – | – | – | ~50 | – | – | – | – | – |
| Nc1ccn([C@@H]2O[C@H](CO)[C@@H](O)C2(F)F)c(=O)n1 [Gemcitabine, reference compound] | 0.51 ± 0.17 | 0.03 ± 0.04 | 7.43 ± 5.24 | 0.046 ± 0.041 | – | – | – | robust levels of RRM1 | – | – | – | – |
| NC(=O)NO [Hydroxyurea, reference compound] | 262 ± 181 | 704 | 2400 ± 485 | 306 ± 61.1 | – | caused DNA replication stalling | – | – | robust levels of RRM2 | did not | – | – |
| Oc1ccc(/C=C/c2cc(O)cc(O)c2)cc1 [Resveratrol, 3,5,4′-trihydroxy-trans-stilbene, reference compound] | 30.2 ± 4.22 | 42.4 ± 4.9 | 82 ± 24.4 | 24.5 ± 3.32 | 24.5 to 82 | – | – | – | – | did not | causing down-regulation of And-1 protein | did not change the cell-cycle population |
